The text below walks through data of patent US9440957B2, “Compounds and compositions for modulating EGFR Activity” (Novartis AG, priority 2012, dated 2016).

Read-outs that look alike come from different tables or passages of the source. Bounds are passed on as bounds.

Assay [1] concerns the target human EGFR L858R/T790M (NIH/3T3 cells) (Homo sapiens, UniProt P00533, L858R/T790M). Nature of the assay: EGFR target modulation in engineered NIH/3T3 cell lines (phospho-EGFR Y1068 AlphaLISA), EGFR L858R/T790M. Conditions: engineered NIH/3T3 cells, read-out: NIH3T3 IC50 (μM) EGFR (L858R/T790M). Format: cell-based. In short, it runs like this:
(§1)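 Engineered NIH/3T3 cells were plated overnight, then exposed to a 12-point 1:3 compound series (from a 10 μM stock) for 3 hours at 37 °C. WT-expressing cells alone were stimulated with 50 ng/ml EGF for 5 minutes before lysis. IC50s came from non-linear fits of AlphaLISA signal.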
Background: Bead proximity is the source of the signal in Alpha formats.

In assay [2] the target is human EGFR WT (NIH/3T3 cells, EGF-induced) (Homo sapiens, UniProt P00533). The assay can be described thus: EGFR target modulation in engineered NIH/3T3 cell lines (phospho-EGFR Y1068 AlphaLISA), EGFR WT. The assay is classed as cell-based. The settings on record: engineered NIH/3T3 cells, read-out: NIH3T3 IC50 (μM) EGFR (WT). In short, it runs like this: as §1
Assay [3] addresses T1, EGFR(L858R/T790M) (Homo sapiens, UniProt P00533, L858R/T790M).
T1 construct: purchased from Carna (GST-a.a. 669-1210)
Nature of the assay: EGFR biochemical assay (HTRF), IC50 determinations. In short, it runs like this: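 HTRF kinase reaction with biotin-TK peptide at room temperature, quenched with EDTA at 60 min and detected with PT66K/SAXL after 1 h. Without preincubation, enzyme starts the reaction with compound, ATP and peptide present. With preincubation, compound, enzyme and peptide sit at room temperature for a set time before ATP is added.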
Background: TR-FRET usually uses a lanthanide donor and a delayed reading to cut background.

Assay [4] has as its target HEKn (EGFR WT) (Homo sapiens, UniProt P00533). Nature of the assay: EGFR target modulation in HEKn (EGFR-WT) cell line (phospho-EGFR Y1173 ELISA). The assay is classed as cell-based. The settings on record: value outside parentheses. Here is the method:
EGFR Target Modulation in HEKn (EGFR-WT) Cell Line Tissue Culture. Human neonatal epithelial keratinocytes (Invitrogen #C-001-5C) were maintained in EpiLife media (Invitrogen #[…]) supplemented with growth factors (Invitrogen #S-001-5). Cells were harvested with 0.05% Trypsin/EDTA (Hyclone #SH30236.01) and quenched with 5% FBS/EpiLife media. […] The serial diluted compounds were transferred to the plate containing cells by using a 50 nl Pin Head device (Perkin Elmer) and the cells were placed back in the incubator for 3 hours. […] Phospho-EGFR (Y1173) ELISA. Solid white high-binding ELISA plates (Greiner #781074) were coated with 5 ug/ml anti-EGFR capture antibody (R&D Systems #AF231) overnight in 50 mM carbonate/bicarbonate pH 9.5 buffer. […] Wash steps were carried out with a Bio-Tek ELx405 SelectTM using 4 cycles of 100 ul TBS-T (20 mM Tris, 137 mM NaCl, 0.05% Tween-20) per well. […] Lysis was allowed to occur for 20 minutes on ice. A 25 ul aliquot was added to each well of the blocked ELISA plate and incubated overnight at 4° C. with gentle shaking. […] After washing, 1:2,000 anti-rabbit-HRP (Cell Signaling #7074) in 0.2% BSA/TBS-T was added and incubated for 1 hour at room temperature. Chemiluminescent detection was carried out with SuperSignal ELISA Pico substrate (ThermoScientific #37069). Signal was read on EnVision plate reader using built-in UltraLUM setting. Data Analysis. Control cells treated with EGF were set to 100% maximum response. […] With these parameters, the IC50's for each compound in each cell line was calculated using non-linear curve fitting analysis.

The target of assay [5] is H3255 (EGFR L858R) (Homo sapiens, UniProt P00533, L858R). The assay can be described thus: EGFR target modulation in H3255 cell line (phospho-EGFR Y1173 ELISA). Format: cell-based. As for the experimental part: (§2) EGFR Target Modulation in H1975, H3255 and HCC827 Cell Lines Tissue Culture. Cells were maintained in 10% FBS/RPMI supplemented with 100 μg/ml Penicillin/Streptomycin (Hyclone #SH30236.01). […] The cells were allowed to incubate overnight in a 37° C., 5% CO2 humidified tissue culture incubator. […] The serial diluted compounds were transferred to the plate containing cells by using a 50 nl Pin Head device (Perkin Elmer) and the cells were placed back in the incubator for 3 hours. Phospho-EGFR ([…]) Target Modulation Assay. The media was reduced to 20 ul using a Bio-Tek ELx 405 SelectTM plate washer. […] The plates were shaken at 4° C. for 20 minutes. An aliquot of 25 ul from each well was transferred to pEGFR(Y1173) ELISA plates for analysis. Phospho-EGFR ([…]) ELISA. Solid white high-binding ELISA plates (Greiner #781074) were coated with 5 ug/ml anti-EGFR capture antibody (R&D Systems #AF231) overnight in 50 mM carbonate/bicarbonate pH 9.5 buffer. Plates were blocked with 1% BSA (Sigma #A7030) in PBS for 1 hour at room temperature. Wash steps were carried out with a Bio-Tek ELx405 SelectTM using 4 cycles of 100 ul TBS-T (20 mM Tris, 137 mM NaCl, 0.05% Tween-20) per well. […] Lysis was allowed to occur for 20 minutes on ice. A 25 ul aliquot was added to each well of the blocked ELISA plate and incubated overnight at 4° C. with gentle shaking. […] After washing, 1:2,000 anti-rabbit-HRP (Cell Signaling #7074) in 0.2% BSA/TBS-T was added and incubated for 1 hour at room temperature. Chemiluminescent detection was carried out with SuperSignal ELISA Pico substrate (ThermoScientific #37069). Signal was read on EnVision plate reader using built-in UltraLUM setting. Data Analysis. Control cells treated with EGF were set to 100% maximum response. […] With these parameters, the IC50's for each compound in each cell line was calculated using non-linear curve fitting analysis.
H3255 (EGFR L858R), sequence (P00533 25-1210 L858R): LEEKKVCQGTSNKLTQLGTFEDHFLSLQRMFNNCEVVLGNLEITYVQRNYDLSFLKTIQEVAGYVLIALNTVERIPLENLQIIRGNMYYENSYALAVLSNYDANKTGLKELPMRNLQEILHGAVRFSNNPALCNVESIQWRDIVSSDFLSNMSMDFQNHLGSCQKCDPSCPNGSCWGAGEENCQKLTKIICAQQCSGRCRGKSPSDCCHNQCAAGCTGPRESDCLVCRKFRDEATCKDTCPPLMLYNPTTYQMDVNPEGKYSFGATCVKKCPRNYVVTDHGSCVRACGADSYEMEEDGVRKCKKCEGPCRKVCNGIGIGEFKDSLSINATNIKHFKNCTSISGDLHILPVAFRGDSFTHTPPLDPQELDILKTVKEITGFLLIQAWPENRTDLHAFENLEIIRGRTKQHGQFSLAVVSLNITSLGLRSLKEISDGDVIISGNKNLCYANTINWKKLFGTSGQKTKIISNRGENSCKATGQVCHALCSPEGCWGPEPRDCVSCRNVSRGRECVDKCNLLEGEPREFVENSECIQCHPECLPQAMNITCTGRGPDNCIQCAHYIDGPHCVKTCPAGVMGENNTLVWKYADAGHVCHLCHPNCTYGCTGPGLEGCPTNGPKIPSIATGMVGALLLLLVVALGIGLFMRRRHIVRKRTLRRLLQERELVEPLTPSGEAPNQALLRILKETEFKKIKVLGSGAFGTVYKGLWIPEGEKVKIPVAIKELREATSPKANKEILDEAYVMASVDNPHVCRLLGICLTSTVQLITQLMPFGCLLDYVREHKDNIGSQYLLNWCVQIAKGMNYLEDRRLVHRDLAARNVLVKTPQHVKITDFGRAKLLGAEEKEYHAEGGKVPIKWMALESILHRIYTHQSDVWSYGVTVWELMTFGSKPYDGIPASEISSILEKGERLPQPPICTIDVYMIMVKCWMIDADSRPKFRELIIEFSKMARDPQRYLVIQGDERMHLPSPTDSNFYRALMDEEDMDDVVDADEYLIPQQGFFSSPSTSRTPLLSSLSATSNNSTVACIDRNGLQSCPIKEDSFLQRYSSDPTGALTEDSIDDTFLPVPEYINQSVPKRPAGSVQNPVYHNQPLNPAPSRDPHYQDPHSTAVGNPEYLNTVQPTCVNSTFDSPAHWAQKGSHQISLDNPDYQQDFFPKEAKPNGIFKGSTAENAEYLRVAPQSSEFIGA
(ELISA stands for enzyme-linked immunosorbent assay.)

Assay [6] has as its target human EGFR L858R (NIH/3T3 cells) (Homo sapiens, UniProt P00533, L858R). The assay can be described thus: EGFR target modulation in engineered NIH/3T3 cell lines (phospho-EGFR Y1068 AlphaLISA), EGFR L858R. Format: cell-based. Conditions: engineered NIH/3T3 cells, read-out: NIH3T3 IC50 (μM) EGFR (L858R). In a few lines: as §1
Assay [7] deals with H1975 (EGFR L858/T790M) (Homo sapiens, UniProt P00533, L858R/T790M). The assay can be described thus: EGFR target modulation in H1975 cell line (phospho-EGFR Y1173 ELISA). The assay is classed as cell-based. As for the experimental part: as §2
Setting [8] is: EGFR (L858R/T790M) with 90 min pre-incubation, read-out: IC50 (μM) Column B.
The mark [9] stands for this setting: EGFR (L858R/T790M) with no pre-incubation, read-out: IC50 (μM) Column A.

human EGFR L858R (NIH/3T3 cells), sequence (P00533 25-1210 L858R): as above
T1 sequence (P00533 669-1210 T790M/L858R): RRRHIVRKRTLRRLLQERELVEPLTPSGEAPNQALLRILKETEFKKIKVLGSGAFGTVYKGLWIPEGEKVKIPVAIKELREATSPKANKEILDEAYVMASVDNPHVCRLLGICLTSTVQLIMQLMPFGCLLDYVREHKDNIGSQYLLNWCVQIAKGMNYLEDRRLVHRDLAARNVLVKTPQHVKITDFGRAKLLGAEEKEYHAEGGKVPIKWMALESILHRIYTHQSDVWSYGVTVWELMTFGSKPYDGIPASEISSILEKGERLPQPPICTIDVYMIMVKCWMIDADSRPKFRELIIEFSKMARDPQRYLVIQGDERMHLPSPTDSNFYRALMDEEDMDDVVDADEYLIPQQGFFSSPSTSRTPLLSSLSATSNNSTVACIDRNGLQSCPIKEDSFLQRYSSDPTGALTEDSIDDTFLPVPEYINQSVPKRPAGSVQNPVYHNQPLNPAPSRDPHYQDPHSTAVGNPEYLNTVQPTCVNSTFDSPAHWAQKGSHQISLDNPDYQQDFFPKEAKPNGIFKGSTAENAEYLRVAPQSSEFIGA
HEKn (EGFR WT), sequence (P00533 25-1210): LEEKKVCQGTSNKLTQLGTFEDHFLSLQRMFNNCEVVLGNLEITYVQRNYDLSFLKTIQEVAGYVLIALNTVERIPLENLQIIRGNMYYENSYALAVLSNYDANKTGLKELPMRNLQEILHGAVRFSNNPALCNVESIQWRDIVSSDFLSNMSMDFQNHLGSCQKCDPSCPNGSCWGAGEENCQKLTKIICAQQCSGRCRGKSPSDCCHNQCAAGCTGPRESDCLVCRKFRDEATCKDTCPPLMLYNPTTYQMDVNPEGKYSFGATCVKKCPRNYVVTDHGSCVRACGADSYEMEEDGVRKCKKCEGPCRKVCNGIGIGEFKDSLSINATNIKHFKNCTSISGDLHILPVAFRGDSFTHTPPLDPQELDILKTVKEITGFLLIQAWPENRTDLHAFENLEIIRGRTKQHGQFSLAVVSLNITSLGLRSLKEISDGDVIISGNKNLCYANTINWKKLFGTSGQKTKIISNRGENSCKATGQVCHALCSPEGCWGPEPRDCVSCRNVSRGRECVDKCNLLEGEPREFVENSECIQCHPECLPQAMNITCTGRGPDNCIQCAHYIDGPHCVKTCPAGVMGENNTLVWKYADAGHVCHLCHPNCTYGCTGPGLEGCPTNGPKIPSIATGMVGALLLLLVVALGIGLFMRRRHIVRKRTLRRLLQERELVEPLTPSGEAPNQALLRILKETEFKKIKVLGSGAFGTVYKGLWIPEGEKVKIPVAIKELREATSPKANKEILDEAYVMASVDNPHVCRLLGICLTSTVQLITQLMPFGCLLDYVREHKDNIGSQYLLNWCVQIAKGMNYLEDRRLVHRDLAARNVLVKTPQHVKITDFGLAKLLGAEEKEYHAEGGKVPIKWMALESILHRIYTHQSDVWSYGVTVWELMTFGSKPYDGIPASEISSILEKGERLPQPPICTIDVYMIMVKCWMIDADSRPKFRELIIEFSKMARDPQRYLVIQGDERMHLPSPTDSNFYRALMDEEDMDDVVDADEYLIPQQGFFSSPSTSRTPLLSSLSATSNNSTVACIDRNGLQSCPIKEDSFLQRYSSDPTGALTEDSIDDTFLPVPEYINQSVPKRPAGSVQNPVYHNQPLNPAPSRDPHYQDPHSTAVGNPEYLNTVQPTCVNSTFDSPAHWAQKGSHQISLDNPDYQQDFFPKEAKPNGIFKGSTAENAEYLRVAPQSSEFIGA

Turning to `Cc1cccc2nc(NC(=O)c3cncc(F)c3)n([C@@H]3CCCCN(C(=O)/C=C/CN(C)C)C3)c12` [Example 17-69], the IC50 in assay [1] was below 0.001 µM; in assay [2] it was 0.02 µM; in assay [3] (setting [8]) it was below 0.001 µM; in assay [3] (setting [9]), 0.002 µM; in assay [4] it was 71 nM; in assay [5] it was 6 nM. In addition, the IC50 in assay [6] is 0.001 µM; in assay [7], 1 nM.
As for `Cc1cc(C(=O)Nc2nc3cccc(Cl)c3n2[C@@H]2CCCCN(C(=O)/C=C/CN3CC(O)C3)C2)ccn1` [Example 3-13], the IC50 in assay [1] is 0.022 µM; in assay [2] it was 0.41 µM; in assay [3] (setting [8]), below 0.001 µM; in assay [3] (setting [9]), 0.007 µM; in assay [4] it was 900 nM; in assay [5], 12 nM. Moreover, the IC50 in assay [6] came to 0.014 µM; in assay [7], 19 nM.
Turning to `Cc1cccc2nc(NC(=O)c3cc(F)ccc3F)n(C3CCCCN(C(=O)/C=C/CN(C)C)C3)c12` (stereo not drawn) [Example 17-29], the IC50 in assay [1] was 0.017 µM; in assay [2], 0.82 µM; in assay [3] (setting [8]), below 0.001 µM; in assay [3] (setting [9]) it was 0.02 µM; in assay [4], 2610 nM; in assay [5], 290 nM. In addition, the IC50 is 0.028 µM in assay [6] and 93 nM in assay [7].
Turning to `Cc1cccc2nc(NC(=O)c3ccnc(C(F)(F)F)c3)n([C@@H]3CCCCN(C(=O)/C=C/CN(C)C)C3)c12` [Example 8, (R,E)-N-(1-(1-(4-(dimethylamino)but-2-enoyl)azepan-3-yl)-7-methyl-1H-benzo[d]imidazol-2-yl)-2-(trifluoromethyl)isonicotinamide], the IC50 in assay [1] is 0.001 µM; in assay [2], 0.021 µM; in assay [4], 82 nM; in assay [5], 2 nM; in assay [6], 0.001 µM; in assay [7], 1 nM.
For `COc1cccc2nc(NC(=O)c3ccnnc3)n([C@@H]3CCCCN(C(=O)/C=C/CN(C)C)C3)c12` [Example 17-83], the IC50 in assay [1] was determined as 0.027 µM; in assay [2], 0.6 µM; in assay [3] (setting [8]), 0.001 µM; in assay [3] (setting [9]), 0.02 µM; in assay [4] it was 2330 nM; in assay [5], 72 nM. In addition, the IC50 in assay [6] came out at 0.022 µM; in assay [7] it was 29 nM.
As for `Cc1ncc(C(=O)Nc2nc3cccc(C)c3n2C2CCCCN(C(=O)/C=C/CN(C)C)C2)s1` (single isomer, unassigned) [Example 21-8B], the IC50 was 0.002 µM in assay [1]; 0.016 µM in assay [2]; below 0.001 µM in assay [3] (setting [8]); 0.006 µM in assay [3] (setting [9]); 95 nM in assay [4]; 2 nM in assay [5]. Also, the IC50 in assay [6] amounted to 0.001 µM; in assay [7], 4 nM.
Take `C=CC(=O)N1CCCC[C@@H](n2c(NC(=O)c3cccc(C(F)(F)F)c3)nc3cccc(C)c32)C1` (single isomer, unassigned) [Example 21-4]: the IC50 was 0.002 µM in assay [1]; 0.239 µM in assay [2]; below 0.001 µM in assay [3] (setting [8]); 0.006 µM in assay [3] (setting [9]); 285 nM in assay [4]; 13 nM in assay [5]. In addition, the results for the IC50 in assay [6] and in assay [7] were 0.004 µM and 1 nM, respectively.
As to `Cc1cc(C(=O)Nc2nc3cccc(C)c3n2[C@@H]2CCCCN(C(=O)/C=C/CN3CC[C@@H](F)C3)C2)ccn1` [Example 3-10], the IC50 was below 0.001 µM in assay [3] (setting [8]); 0.006 µM in assay [3] (setting [9]); 620 nM in assay [4]; 13 nM in assay [5]; 8 nM in assay [7].
The corresponding values for `COc1ccc2nc(NC(=O)c3ccnc(C)c3)n([C@@H]3CCCCN(C(=O)/C=C/CN(C)C)C3)c2c1Cl` [Example 17-177] are below 0.001 µM, 0.003 µM, 93 nM, 4 nM and 4 nM.
Take `C=CC(=O)N1CCCC[C@@H](n2c(NC(=O)c3cccc(F)c3F)nc3cc(CN4CC[C@@H](OC)C4)cc(C)c32)C1` [Example 17-160]: the IC50 is below 0.001 µM in assay [3] (setting [8]); 0.007 µM in assay [3] (setting [9]); 237 nM in assay [4]; 17 nM in assay [5]; 1 nM in assay [7].
For `COc1cc2nc(NC(=O)c3cc(C)nc(C)c3)n([C@@H]3CCCCN(C(=O)/C=C/CN(C)C)C3)c2cc1Cl` [Example 17-179] the same measures were 0.012 µM, 0.23 µM, 5400 nM, 188 nM and 234 nM.
As for `O=C(Nc1nc2cccc(Cl)c2n1[C@@H]1CCCCN(C(=O)/C=C/CN2CC[C@@H](F)C2)C1)c1ccnnc1` [Example 3-11], the IC50 is below 0.001 µM in assay [3] (setting [8]); 0.005 µM in assay [3] (setting [9]); 169 nM in assay [4]; 9 nM in assay [5]; 7 nM in assay [7].
As for `CC#CC(=O)N1CCCCC(n2c(NC(=O)c3cccc(C(F)(F)F)c3)nc3cccc(C)c32)C1` (stereo not drawn) [Example 17-19], the IC50 in assay [1] was 0.044 µM; in assay [2] it was above 10 µM; in assay [3] (setting [8]), 0.007 µM; in assay [3] (setting [9]), 0.33 µM; in assay [6] it was 0.33 µM.
As for `C=C(CN1CCOCC1)C(=O)N1CCCC[C@@H](n2c(NC(=O)c3ccnnc3)nc3cccc(C)c32)C1` [Example 17-93], the IC50 in assay [1] turned out to be 0.35 µM; in assay [2], 4.2 µM; in assay [3] (setting [8]), 0.059 µM; in assay [3] (setting [9]) it was 0.39 µM; in assay [6], 0.281 µM.
The corresponding values for `COC1CN(C/C=C/C(=O)N2CCCC[C@@H](n3c(NC(=O)c4ccnc(C)c4)nc4cccc(Cl)c43)C2)C1` [Example 3-14] are 0.012 µM, 0.78 µM, below 0.001 µM, 0.012 µM and 0.011 µM.
As to `Cc1cccc2nc(NC(=O)c3ccc4ccccc4c3)n(C3CCCCN(C(=O)/C=C/CN(C)C)C3)c12` (stereo not drawn) [Example 17-66], the IC50 is 0.009 µM in assay [1]; 0.129 µM in assay [2]; below 0.001 µM in assay [3] (setting [8]); 0.005 µM in assay [3] (setting [9]); 0.005 µM in assay [6].
